From patent publication US10188743B2, “Cytisine-linked isoflavonoid antineoplastic agents for the treatment of cancer” (UNIVERSITY OF KENTUCKY RESEARCH FOUNDATION, priority 2016, dated 2019) come the findings set out here.

For assay [1], the system named is acetyl CoA carboxylase (ACC). Put plainly: ACC phosphorylation / activation downstream of AMPK (Western blotting). The format is cell-based. The note with it: PC-3 and LS174T cells. As to the method:
(§1) Biochemistry. Western blotting: Cells were lysed in the appropriate volume of lysis buffer (50 mM HEPES, 100 mM NaCl, 2 mM EDTA, 1% glycerol, 50 mM NaF, 1 mM Na3VO4, 1% Triton X-100, with protease inhibitors). The following antibodies were used: HSD17B4 (GeneTex, GTX103864), AMPK (Cell Signaling, 2532), pAMPK (Cell Signaling, 2535), ACC (Cell Signaling, 3676), pACC (Cell Signaling, 11818), p^70 (Cell Signaling, 2708), p-p^70 (Cell Signaling, 9914), S6 (Cell Signaling, 2217), pS6 (Cell Signaling, 4858), MCCA (GeneTex, GTX110062), tubulin (Hybridoma Bank, E7), Actin (Sigma, A1978), His-tag (BD Pharmingen, 552564).
(In western blotting, separated proteins are transferred to a membrane and probed.)

Assay [2] concerns LS174T colon cancer cells. Put plainly: Fatty acid analysis of treated cells. The format is cell-based. As to the method: Fatty acid analysis: Free and total fatty acids (after saponification) were prepared as reported previously (Spencer et al. Diabetes 62(5):1709-1717) converted to N-(4-aminomethylphenyl)pyridinium derivatives (Bollinger et al. J Lipid Res 54(12):3523-3530) and quantitated HPLC electrospray ionization tandem mass spectrometry with quantitation accomplished using exogenously added heptadecanoic acid as a recovery standard and reference to offline calibrations generated using authentic fatty acid standards.

For assay [3], the system named is PC-3 prostate cancer cells. Put plainly: Seahorse XF assay. The format is cell-based. The note with it: PC-3 cells. The source says: (§2) We further characterized the effects of cytisine-linked isoflavonoid 10c on energy metabolism using a Seahorse XF assay (FIG. 4D-F) that measured oxygen consumption rate (OCR), which was an indicator of mitochondrial respiration, and measured extracellular acidification rate (ECAR), which was largely the result of glycolysis. […] Similar results were found in DLD-1 colon cancer cells and PC-3 prostate cancer cells (FIGS. 8 and 9). These OCR findings were consistent with the prior evaluation of these cytisine-linked isoflavonoids that targeted the hydratase activity in HSD17B4, inhibited VLCFA beta-oxidation, depressed acetyl CoA generation, decreased the ratio of ATP/AMP, and triggered AMPK activation (FIG. 5).
(§3) Seahorse assay: 3×10^4 cells were seeded in XF96 Cell Culture microplate (80 μL of 3.75×10^5 cells/m:). On the next day, cells were treated with DMSO or inhibitors and analyzed using the Seahorse analyzer in Redox Metabolism Shared Resource Facility (RM SRF) at the Markey Cancer Center.

Another assay has as its system DLD1 colon cancer cells. Put plainly: Seahorse XF assay. The format is cell-based.
Description: as §2, §3

The subject of another assay is AMPK. The assay can be described thus: AMPK activation (levels of phosphorylated AMPK, Western blotting). The format is cell-based. As to the method: as §1
The target of assay [4] is T1, α,β-dehydrogenase activity of HSD17B4 (Homo sapiens, UniProt P51659).
T1 construct: His-tag; made in house; host or cells: E. coli BL21 (pET28)
T1 sequence (P51659 1-736): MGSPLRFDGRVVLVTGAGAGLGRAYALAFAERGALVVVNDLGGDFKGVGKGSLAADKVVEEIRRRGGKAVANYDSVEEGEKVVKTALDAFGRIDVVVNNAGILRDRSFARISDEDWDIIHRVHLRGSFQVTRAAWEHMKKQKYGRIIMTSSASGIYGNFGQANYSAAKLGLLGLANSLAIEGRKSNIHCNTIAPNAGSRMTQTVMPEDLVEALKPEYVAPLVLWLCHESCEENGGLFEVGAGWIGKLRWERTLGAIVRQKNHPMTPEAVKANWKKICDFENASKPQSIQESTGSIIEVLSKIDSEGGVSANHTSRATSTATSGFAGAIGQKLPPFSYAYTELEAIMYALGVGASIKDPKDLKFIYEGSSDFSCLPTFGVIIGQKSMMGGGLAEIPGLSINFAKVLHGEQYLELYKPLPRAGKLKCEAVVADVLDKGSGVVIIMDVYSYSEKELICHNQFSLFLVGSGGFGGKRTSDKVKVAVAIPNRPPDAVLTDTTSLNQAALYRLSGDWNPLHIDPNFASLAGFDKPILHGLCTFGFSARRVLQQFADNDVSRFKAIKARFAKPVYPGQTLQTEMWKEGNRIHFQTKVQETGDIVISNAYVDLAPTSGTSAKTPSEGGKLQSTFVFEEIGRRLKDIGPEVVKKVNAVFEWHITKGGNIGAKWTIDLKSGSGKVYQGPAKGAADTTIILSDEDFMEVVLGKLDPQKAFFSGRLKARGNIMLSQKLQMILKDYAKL
The assay can be described thus: HSD17B4 dehydrogenase assay (NADH readout). The format is biochemical. The source says: We acquired further evidence along these lines through studies using the N-terminal α,β-dehydrogenase and C-terminal hydratase fragments of HSD17B4 as well as the full-length protein. We evaluated the α,β-dehydrogenase activity using DL-3-hydroxylbutyryl-CoA as a substrate and the conversion of NAD^+ to NADH as a readout. We concomitantly measured the hydratase activity using crotonoyl-CoA as a substrate and the diminished ultraviolet absorption of the α,β-unsaturated thioester chromophore as readout. The full-length protein, as expected, had both enzyme activities (FIGS. 7A and 7B). The C-terminal-truncated fragments N318 and N634 but not the N-terminal-truncation fragment C919 had α,β-dehydrogenase activity (FIG. 7A). The C-terminal fragment N634 and the N-terminal fragment C919, but not the C-terminal fragment N318, had hydratase activity (FIG. 7B), as summarized in FIG. 3A.
The enzymatic activities of HSD17B4 were analyzed using the method reported by Novikov et al. (J. Biol. Chem., 1994, 269, 27125). […] The reaction was quantified by measuring the fluorescent product NADH (excitation: 340 nm; emission 460 nm). […] The reaction was quantified by measuring the remaining substrate using absorbance at 280 nm.

Another assay has as its system LS174T cancer cells. The assay can be described thus: ATP analysis of treated cells. The format is cell-based. As to the method: ATP analysis: Cells growing in 12-well plates were treated with DMSO or inhibitors, and lysed by adding 1 mL boiling D.D. water. Supernatants were analyzed by luminescence using ATP Determination Kit (Invitrogen, A22066).

As to `O=c1c(-c2ccc(Cl)cc2)coc2cc(OCCN3C[C@@H]4C[C@@H](C3)c3cccc(=O)n3C4)ccc12` [Compound 10c, (1 S,5S)-3-(2-((3-(4-chlorophenyl)-4-oxo-4H-chromen-7-yl)oxy)ethyl)-3,4,5,6-tetrahydro-1H-1,5-methanopyrido[1,2-a][1,5]diazocin-8(2H)-one], in assay [1], the ACC phosphorylation entry is on record as “induced appreciable ACC phosphorylation”. The fatty acid levels result in assay [2] is listed as “reduced the levels of a number of fatty acids”. The respiration rate entry (in assay [3]; with DLD1 colon cancer cells) was “reduced respiration rate” each time. In the assay on DLD1 colon cancer cells, the ATP production result is “reduced”. Moreover, the AMPK activation result in the assay with AMPK (LS174T colon cancer cells) and in the assay with AMPK (PC-3 prostate cancer cells) was “activated AMPK” each time. For the same molecule, the “effect on α,β-dehydrogenase activity” value in assay [4] is given as “no effect”. In the assay on LS174T cancer cells, the “level of ATP” value is on record as “decreased the levels”.
